# Measured values from patent publication US20070128217A1 (priority 2003, published 2007).
# How the values were obtained:
# [1] = system: antibodies in sera from SARS patients (sera 1a, 1b, 2, 6, 37, 62, London, SARS-yellow, SARS-green); type: binding, human; design: Binding of serum 6 to linear peptides of protein X1 of SARS-CoV Urbani / Binding of serum 37 to linear peptides of protein X1 of SARS-CoV Urbani / Binding of serum 6 to looped/cyclic peptide (PEPSCAN-ELISA) / Binding of serum 37 to looped/cyclic peptide (PEPSCAN-ELISA) / Binding of serum 37 to looped/cyclic peptides of protein X1 of SARS-CoV Urbani / Binding of serum 6 to linear peptides of protein X2 / Binding of serum 37 to linear peptides of protein X2 / Binding of serum 37 to looped/cyclic peptides of protein X2 of SARS-CoV Urbani / Binding of serum 6 to linear peptides of protein M of SARS-CoV Urbani / Binding of serum 37 to linear peptides of protein M of SARS-CoV Urbani / Binding of serum 6 to looped/cyclic peptides of protein M of SARS-CoV Urbani / Binding of serum 37 to looped/cyclic peptides of protein M of SARS-CoV Urbani / Binding of serum 6 to linear peptides of protein X3 of SARS-CoV Urbani / Binding of serum 37 to linear peptides of protein X3 of SARS-CoV Urbani / Binding of serum 37 to looped/cyclic peptides of protein X3 of SARS-CoV Urbani / Binding of serum 6 to linear peptides of protein X4 of SARS-CoV Urbani / Binding of serum 37 to linear peptides of protein X4 of SARS-CoV Urbani / Binding of serum 37 to looped/cyclic peptides of protein X4 of SARS-CoV Urbani / Binding of serum 6 to linear peptides of protein X5 of SARS-CoV Urbani / Binding of serum 37 to linear peptides of protein X5 of SARS-CoV Urbani / Binding of serum 37 to looped/cyclic peptides of protein X5 of SARS-CoV Urbani / Binding of serum 6 to linear peptides of protein N of SARS-CoV Urbani / Binding of serum 37 to linear peptides of protein N of SARS-CoV Urbani / Binding of serum 6 to linear peptide (PEPSCAN-ELISA) / Binding of serum 1a to looped/cyclic peptides of protein N of SARS-CoV Urbani / Binding of serum 1b to looped/cyclic peptides of protein N of SARS-CoV Urbani / Binding of serum 2 to looped/cyclic peptides of protein N of SARS-CoV Urbani / Binding of serum 6 to looped/cyclic peptides of protein N of SARS-CoV Urbani / Binding of serum 37 to looped/cyclic peptides of protein N of SARS-CoV Urbani / Binding of serum 62 to looped/cyclic peptides of protein N of SARS-CoV Urbani / Binding of serum London to looped/cyclic peptides of protein N of SARS-CoV Urbani / Binding of serum SARS-green to looped/cyclic peptides of protein N of SARS-CoV Urbani: unit not given here
# [2] = system: rabbit serum obtained by immunizing a rabbit with the SARS-CoV strain Frankfurt 1; type: binding; design: Binding of a rabbit serum to linear peptides / Binding of a rabbit serum to looped peptides / Rabbit serum linear peptides / Rabbit serum looped peptides / Binding of a rabbit serum to linear peptides of protein N of SARS-CoV Urbani (Rabbit serum linear peptides) / Binding of a rabbit serum to looped/cyclic peptides of protein N of SARS-CoV Urbani (Rabbit serum looped peptides): unit not given here
# [3] = system: control sera (pooled serum of ten healthy LUMC hospital workers; commercial negative donor pooled serum from the Dutch bloodbank); type: binding, human; design: Binding of Control serum LUMC to linear peptides / Binding of Control serum Blood-bank to linear peptides / Binding of Control serum LUMC to looped peptides / Binding of Control Serum Blood-Bank to Looped peptides / Binding of Control serum LUMC to linear peptides of the protein M of SARS-CoV Urbani / Binding of Control serum Blood-bank to linear peptides of the protein M of SARS-CoV Urbani / Binding of Control serum LUMC to looped peptides of the protein M of SARS-CoV Urbani / Binding of Control Serum Blood-Bank to Looped peptides of the protein M of SARS-CoV Urbani: unit not given here
sequence,measurement,setting,value
IIKLVFLWLLWPVTL,Binding of serum 1a to linear peptides of protein M of SARS-CoV Urbani,[1],0.7
same,Binding of serum 1a to looped/cyclic peptides of protein M of SARS-CoV Urbani,[1],0.6
same,Binding of serum 1b to linear peptides of protein M of SARS-CoV Urbani,[1],0.5
same,Binding of serum 1b to looped/cyclic peptides of protein M of SARS-CoV Urbani,[1],0.7
same,Binding of serum 2 to linear peptides of protein M of SARS-CoV Urbani,[1],0.4
same,Binding of serum 2 to looped/cyclic peptides of protein M of SARS-CoV Urbani,[1],0.5
same,Binding of serum 6 to linear peptides of protein M of SARS-CoV Urbani,[1],0.4
same,Binding of serum 6 to looped/cyclic peptides of protein M of SARS-CoV Urbani,[1],0.5
same,Binding of serum 37 to linear peptides of protein M of SARS-CoV Urbani,[1],0.3
same,Binding of serum 37 to looped/cyclic peptides of protein M of SARS-CoV Urbani,[1],0.5
same,Binding of serum 62 to linear peptides of protein M of SARS-CoV Urbani,[1],0.3
same,Binding of serum 62 to looped/cyclic peptides of protein M of SARS-CoV Urbani,[1],0.6
same,Binding of serum London to linear peptides of protein M of SARS-CoV Urbani,[1],0.3
same,Binding of serum London to looped/cyclic peptides of protein M of SARS-CoV Urbani,[1],0.2
same,Binding of serum SARS-green to linear peptides of protein M of SARS-CoV Urbani,[1],0.4
same,Binding of serum SARS-green to looped/cyclic peptides of protein M of SARS-CoV Urbani,[1],0.3
same,Binding of serum SARS-yellow to linear peptides of protein M of SARS-CoV Urbani,[1],0.2
same,Binding of serum SARS-yellow to looped/cyclic peptides of protein M of SARS-CoV Urbani,[1],0.4
same,Rabbit serum linear peptides,[2],0.1
same,Rabbit serum looped peptides,[2],0.0
same,Binding of Control Serum Blood-Bank to Looped peptides of the protein M of SARS-CoV Urbani,[3],0.7
same,Binding of Control serum Blood-bank to linear peptides of the protein M of SARS-CoV Urbani,[3],0.5
same,Binding of Control serum LUMC to linear peptides of the protein M of SARS-CoV Urbani,[3],0.6
same,Binding of Control serum LUMC to looped peptides of the protein M of SARS-CoV Urbani,[3],0.6
NLDVIISSIVRQLFK,Binding of serum 1a to linear peptides of protein X3 of SARS-CoV Urbani,[1],0.7
same,Binding of serum 1a to looped/cyclic peptides of protein X3 of SARS-CoV Urbani,[1],0.5
same,Binding of serum 1b to linear peptides of protein X3 of SARS-CoV Urbani,[1],0.2
same,Binding of serum 1b to looped/cyclic peptides of protein X3 of SARS-CoV Urbani,[1],0.4
same,Binding of serum 2 to linear peptides of protein X3 of SARS-CoV Urbani,[1],0.4
same,Binding of serum 2 to looped/cyclic peptides of protein X3 of SARS-CoV Urbani,[1],0.5
same,Binding of serum 6 to linear peptides of protein X3 of SARS-CoV Urbani,[1],0.6
same,Binding of serum 6 to looped/cyclic peptides of protein X3 of SARS-CoV Urbani,[1],0.8
same,Binding of serum 37 to linear peptides of protein X3 of SARS-CoV Urbani,[1],0.6
same,Binding of serum 37 to looped/cyclic peptides of protein X3 of SARS-CoV Urbani,[1],0.5
same,Binding of serum 62 to linear peptides of protein X3 of SARS-CoV Urbani,[1],0.6
same,Binding of serum 62 to looped/cyclic peptides of protein X3 of SARS-CoV Urbani,[1],0.4
same,Binding of serum London to linear peptides of protein X3 of SARS-CoV Urbani,[1],0.7
same,Binding of serum London to looped/cyclic peptides of protein X3 of SARS-CoV Urbani,[1],1.8
same,Binding of serum SARS-green to linear peptides of protein X3 of SARS-CoV Urbani,[1],0.3
same,Binding of serum SARS-green to looped/cyclic peptides of protein X3 of SARS-CoV Urbani,[1],0.2
same,Binding of serum SARS-yellow to linear peptides of protein X3 of SARS-CoV Urbani,[1],0.3
same,Binding of serum SARS-yellow to looped/cyclic peptides of protein X3 of SARS-CoV Urbani,[1],0.6
same,Rabbit serum linear peptides,[2],0.3
same,Rabbit serum looped peptides,[2],0.2
same,Binding of Control Serum Blood-Bank to Looped peptides of the protein X3 of SARS-CoV Urbani,[3],0.8
same,Binding of Control serum Blood-bank to linear peptides of the protein X3 of SARS-CoV Urbani,[3],0.8
same,Binding of Control serum LUMC to linear peptides of the protein X3 of SARS-CoV Urbani,[3],0.6
same,Binding of Control serum LUMC to looped peptides of the protein X3 of SARS-CoV Urbani,[3],0.8
KGFQFICNLLLLFVT,Binding of serum 1a to linear peptides of protein X1 of SARS-CoV Urbani,[1],0.6
same,Binding of serum 1a to looped/cyclic peptide (PEPSCAN-ELISA),[1],0.6
same,Binding of serum 1b to linear peptides of protein X1 of SARS-CoV Urbani,[1],0.5
same,Binding of serum 1b to looped/cyclic peptide (PEPSCAN-ELISA),[1],0.4
same,Binding of serum 2 to linear peptides of protein X1 of SARS-CoV Urbani,[1],0.6
same,Binding of serum 2 to looped/cyclic peptide (PEPSCAN-ELISA),[1],0.4
same,Binding of serum 6 to linear peptides of protein X1 of SARS-CoV Urbani,[1],0.5
same,Binding of serum 6 to looped/cyclic peptide (PEPSCAN-ELISA),[1],1.0
same,Binding of serum 37 to linear peptides of protein X1 of SARS-CoV Urbani,[1],0.6
same,Binding of serum 37 to looped/cyclic peptide (PEPSCAN-ELISA),[1],0.6
same,Binding of serum 62 to linear peptides of protein X1 of SARS-CoV Urbani,[1],0.7
same,Binding of serum 62 to looped/cyclic peptide (PEPSCAN-ELISA),[1],0.6
same,Binding of serum London to linear peptides of protein X1 of SARS-CoV Urbani,[1],0.3
same,Binding of serum London to looped/cyclic peptide (PEPSCAN-ELISA),[1],1.1
same,Binding of serum SARS-green to linear peptides of protein X1 of SARS-CoV Urbani,[1],0.2
same,Binding of serum SARS-green to looped/cyclic peptide (PEPSCAN-ELISA),[1],0.4
same,Binding of serum SARS-yellow to linear peptides of protein X1 of SARS-CoV Urbani,[1],0.6
same,Binding of serum SARS-yellow to looped/cyclic peptide (PEPSCAN-ELISA),[1],0.6
same,Binding of a rabbit serum to linear peptides,[2],0.6
same,Binding of a rabbit serum to looped peptides,[2],0.5
same,Binding of Control Serum Blood-Bank to Looped peptides,[3],0.5
same,Binding of Control serum Blood-bank to linear peptides,[3],0.7
same,Binding of Control serum LUMC to linear peptides,[3],0.7
same,Binding of Control serum LUMC to looped peptides,[3],0.5
